PMC3228860, “Mitochondrial NAD^+-dependent malic enzyme from Anopheles stephensi: a possible novel target for malaria mosquito control” (2011)

molecular target: mitochondrial NAD+-dependent malic enzyme (ME); experiment: NADH formation at […] nm, mitochondrial lysate, Ki from reciprocal plots; format: biochemical, Anopheles stephensi

Question: How did the Ki turn out when `O=C(O)CC(=O)C(=O)O` [Oxaloacetate] was run?
Answer: The Ki was 120 nM.

Question: `O=C(O)C(=O)O` [Oxalate] was tested. Which Ki did it give?
Answer: The Ki was 150 nM.

Question: `O=C(O)C(O)C(=O)O` [Tartronate] was tested. Which Ki did it give?
Answer: The Ki was 610 nM.
